Results: US7846973B2, “Chemical process and new crystalline form” (Theravance, Inc., priority 2004, dated 2010)
Where a name gives a salt, the structure may show the parent alone.

Assay: Relative thermodynamic stability of crystalline forms of compound (Ia) monohydrochloride
Type: physicochemical
Details: Form 2 versus Form 1 (form of WO 2004/106279)
Source text: Such methods can be used to provide seeds of Form 2 material.

Compound: O=CNc1cc([C@@H](O)CNCCc2ccc(NC[C@H](O)c3ccccc3)cc2)ccc1O [Form 2, N-{2-[4-((R)-2-hydroxy-2-phenylethylamino)phenyl]ethyl}-(R)-2-hydroxy-2-(3-formamido-4-hydroxyphenyl)ethylamine monohydrochloride]
- thermodynamic stability of Form 2 crystals compared with Form 1 crystals: more thermodynamically stable
